Paper PMC6891695, “Evaluation of Antifouling Potential and Ecotoxicity of Secondary Metabolites Derived from Red Algae of the Genus Laurencia” (Marine Drugs, 2019)
pEC50, pIC50: −log10 of the molar value. Read-outs that look alike come from different tables or passages of the source.

Tests used:
cyprids of A. amphitrite = test: whole plant or invertebrate; format: in vivo; conditions: for pEC50 / pIC50: Amphibalanus amphitrite; for pEC50: read-out: EC50 No Metamorphosis; for pIC50: read-out: IC50 Settlement
Procedure: (§1) Adult A. amphitrite (Cirripedia, Balanidae) were collected from boat docks at Port Mikrolimano and Floisvos, Athens, Greece. Animals were cleaned of epibionts with a small hard brush and meticulously identified as individuals of the species. Adult barnacles were kept in separate aerated glass tanks (20 L) containing 200-μm filtered natural seawater at 27 °C and a 12:12 L:D photoperiod. Tanks were fed with 24-h hatched Artemia sp. (Branchiopoda) nauplii and Tetraselmis suecica (Chlorodendrophyceae) and Skeletonema costatum (Bacillariophyceae) algae each day and seawater was changed on alternate days. Upon stress to induce oviposition (exposure to air for 24 h or immersion in fresh water for 5 h), adults were returned to seawater for larval release. Hatched nauplii were attracted to a point light source, collected and placed into a beaker containing 2 or 3 L of 0.7 μm GF/F (GE Healthcare, Little Chalfont, UK )-filtered natural seawater at a density of approximately 1–2 nauplii/mL with gentle aeration. Nauplii were maintained at 27 °C at a 12:12 L:D photoperiod on a diet of C. gracilis (Bacillariophyceae) provided at a density of 2 × 10^5 cells/mL. Cultured in these conditions, nauplii metamorphosed to cyprids in 5 days. Aliquots of these cyprids were collected with a wide-mouthed Pasteur pipette and aged at 4 °C for 1 day prior to use in settlement assays. Only batches of cyprids that were active and had numerous oil cells, representing energy reserves, were used in settlement assays.
(§2) Assays were conducted by adding 10 cyprids into individual wells of a 24-well polystyrene sterile microplate (Orange Scientific, Braine l’Alleud, Belgium) with 2 mL of artificial sea water (ASW) (25‰) and various concentrations of the chemical compounds as listed in Table 1. These experiments were repeated at least three times with four replicates for each concentration of any given compound (n = 120 cyprids/compound). Stock solutions for all compounds were prepared in methanol (Scharlab, Barcelona, Spain) and serial dilutions were prepared in 0.7 μm (GF/F, GE Healthcare, Little Chalfont, UK), filtered sea water to have a final concentration of 2.5% methanol in each assay solution. Plates were covered and sealed with Parafilm® to avoid evaporation and incubated at 25 °C away from any light source and examined after 24, 48 and 72 h. Each animal was inspected under a stereomicroscope and its condition was recorded. […] Both permanently attached and metamorphosed individuals were counted as settled or juveniles. The remainder were counted as ‘no metamorphosis’, i.e. animals that responded to light touch and were still cyprids at the end of the experiments with no overt signs of metamorphosis.
(§3) For EC50 or IC50 (the concentration that results in 50% stimulation or inhibition relative to the control) calculations in GraphPad Prism v.6, all data were fitted to the curve according to the following models for normalized response: Y = 100/(1 + 10^((X − LogIC50))) or Y = 100/(1 + 10^((LogEC50 − X))) depending on the trend of the curve.

in vivo = format: in vivo; conditions: Amphibalanus amphitrite, in vivo, read-out: LC50 Mortality; for LC50 at 72 h: 72 h exposure; for LC50 at 24 h: 24 h exposure; for LC50 at 48 h: 48 h exposure
Procedure: as §1, §2, §3

| Structure (SMILES) | pEC50 (cyprids of A. amphitrite; 24 h) | pIC50 (cyprids of A. amphitrite; 24 h) | pEC50 (cyprids of A. amphitrite; 48 h) | pIC50 (cyprids of A. amphitrite; 48 h) | pEC50 (cyprids of A. amphitrite; 72 h) | pIC50 (cyprids of A. amphitrite; 72 h) | LC50 at 72 h (in vivo) | LC50 at 24 h (in vivo) | LC50 at 48 h (in vivo) | toxic effect on cyprids (cyprids of A. amphitrite; in vivo) |
| --- | --- | --- | --- | --- | --- | --- | --- | --- | --- | --- |
| CC(=CC=CC1(C)CCC(Br)C(C)(C)O1)C1CCC(C)(O)C(Br)C1 (centres unmarked) [Compound 20, O^11,15-cyclo-14-bromo-14,15-dihydrorogiol-3,11-diol] | 4.33 | 5.59 | 4.95 | 5.54 | 5.00 | 5.48 | 138 µM |  |  |  |
| CC1=CC[C@@]2(C)C(=C(C)C(=O)[C@@H](O)[C@@H]2C)CC1 [Compound 10, perforenone A] | 4.41 | 5.28 | 4.15 | 6.18 | 4.24 | 5.33 | 28.8 µM | 28.8 µM | 28.5 µM |  |
| Cc1cc(O)c(C2(C)CCC3CC32C)cc1Br (centres unmarked) [Compound 6, laurinterol] | 4.55 | 5.62 | 4.96 | 5.65 | 4.82 | 5.90 | 2.31 µM | 12.3 µM | 5.29 µM | obvious toxic effect on cyprids |
| C#CC=CCC1OC(C=CC)CC=CCC1Cl (centres unmarked) [Compound 21, (3Ε)-laurenyne] | 5.13 | 5.49 | 4.74 | 5.13 | 9.00 | 6.24 | 18.6 µM | 0.575 µM | 1.12 µM |  |
| Cc1cc2c(cc1Br)C1(C)CCC(C)(O2)C1C (centres unmarked) [Compound 5, filiformin] | 4.57 | 5.65 | 9.00 | 5.26 | 6.54 | 4.89 |  | 33.1 µM |  |  |
| CCC=CCC(Br)C(CC1OC(C=C=CBr)CC1OC(C)=O)OC(C)=O (centres unmarked) [Compound 23, graciosallene] | 6.56 | 6.63 | 4.99 | 5.04 | 4.95 | 5.01 |  |  |  |  |
| C=C1CC[C@@](C)(c2ccc(C)cc2)[C@H]1C [Compound 1, laurene] | 4.42 | 4.55 |  | 4.83 |  | 4.79 | 29.5 µM | 26 µM | 230 µM |  |
| CC(=O)OCC(Br)C1(C)CC=C2C(C1)C(O)CC1C2(C)CC(OC(C)=O)C2CC21C (centres unmarked) [Compound 15, deoxyparguerol 16-acetate] | 4.20 | 5.55 | 4.26 | 5.15 | 4.14 | 5.27 | 34.6 µM | 31.7 µM | 33.4 µM |  |
| C=C1CC[C@@](C)(c2ccc(C)cc2OC(C)=O)[C@H]1C [Compound 2, debromoallolaurinterol acetate] | 4.36 | 5.69 | 4.42 | 4.74 | 4.44 | 4.70 | 191 µM | > 1000 µM | 790 µM |  |
| CC(C)[C@H]1CC(C)(C)[C@@H](O)C2=C1CC[C@H]2C [Compound 7, epibrasilenol] | 4.59 | 4.76 | 4.66 | 4.75 | 4.27 | 4.99 | 25 µM | 24.8 µM | 23.4 µM |  |
| C=CC(C)(O)CCC1C(=C)CCC(Br)C1(C)CCC(Br)C(C)(C)O (centres unmarked) [Compound 17] | 7.24 | 6.20 | 6.04 | 6.09 | 4.00 | 5.92 | > 1000 µM |  |  |  |
| C=CC(C)(O)CCC1C(=C)CCC(Br)C1(C)CCC(O)C(C)(C)Cl (centres unmarked) [Compound 16] | 4.23 | 5.85 | 4.31 | 5.71 | 4.23 | 5.66 | > 1000 µM | > 1000 µM | > 1000 µM |  |
